In PubChem BioAssay (NCI):
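96-well plates; 48 h exposure; 5 concentrations. Endpoints by linear interpolation between flanking doses. Not reached: highest tested concentration assigned. GI50 = concentration required for 50% inhibition of growth. TGI is the concentration that stops growth completely.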

Columns and labels:
Assay in all cases: growth of human tumour cells (NCI), 48 h
RXF 393 renal = tested on: RXF 393 renal
A498 renal = tested on: A498 renal
OVCAR-3 ovarian = tested on: OVCAR-3 ovarian
SNB-75 CNS = tested on: SNB-75 CNS
MALME-3M melanoma = tested on: MALME-3M melanoma
A549 NSCLC = tested on: A549 NSCLC
OVCAR-8 ovarian = tested on: OVCAR-8 ovarian
NCI-H460 lung = tested on: NCI-H460 lung
UO-31 renal = tested on: UO-31 renal
U251 CNS = tested on: U251 CNS

## NCCCCCCNc1cc(-c2cccc(OC(F)(F)F)c2)nc2ccc(N3CCCC3)cc12
RXF 393 renal
  GI50: 1.22 µM
  TGI: 2.52 µM
A498 renal
  GI50: 1.46 µM
  TGI: 2.81 µM
OVCAR-3 ovarian
  GI50: 1.68 µM
  TGI: 3.14 µM
SNB-75 CNS
  GI50: 1.57 µM
  TGI: 2.94 µM

## CCCCCCCCCC[C@@H](O)[C@@H]1CC[C@@H]([C@@H]2CC[C@@H]([C@@H](O)CCCCCCCCCCC(O)CC3=CC(C)OC3=O)O2)O1 (some centres undefined)
RXF 393 renal
  TGI: > 10 µM
A498 renal
  TGI: > 10 µM
MALME-3M melanoma
  TGI: > 10 µM
A549 NSCLC
  TGI: > 10 µM
OVCAR-8 ovarian
  TGI: > 10 µM
SNB-75 CNS
  TGI: > 10 µM
NCI-H460 lung
  TGI: > 10 µM
UO-31 renal
  TGI: > 10 µM

## O=C(O)C(Cc1cccs1)C(=O)O
RXF 393 renal
  TGI: > 100 µM
A498 renal
  TGI: > 100 µM
OVCAR-3 ovarian
  TGI: > 100 µM
MALME-3M melanoma
  TGI: > 100 µM
U251 CNS
  TGI: > 100 µM
A549 NSCLC
  TGI: > 100 µM
OVCAR-8 ovarian
  TGI: > 100 µM
SNB-75 CNS
  TGI: > 100 µM
NCI-H460 lung
  TGI: > 100 µM
UO-31 renal
  TGI: > 100 µM

## COc1ccc(-c2cn3ccnc3c(-c3ccc4ncn(C5CCCCC5)c4c3)n2)cc1
A498 renal
  GI50: 0.742 µM
  TGI: > 100 µM
OVCAR-3 ovarian
  GI50: 0.411 µM
  TGI: > 100 µM
MALME-3M melanoma
  GI50: 43.1 µM
  TGI: > 100 µM
U251 CNS
  GI50: 2.22 µM
  TGI: > 100 µM
A549 NSCLC
  GI50: 1.83 µM
  TGI: > 100 µM
OVCAR-8 ovarian
  GI50: 3.16 µM
  TGI: > 100 µM
SNB-75 CNS
  GI50: 0.733 µM
  TGI: > 100 µM
NCI-H460 lung
  GI50: 0.622 µM
  TGI: > 100 µM
UO-31 renal
  GI50: 1.35 µM
  TGI: > 100 µM

## CC(NCCS(=O)(=O)O)C(=O)O (centres undefined)
RXF 393 renal
  TGI: > 100 µM
A498 renal
  TGI: > 100 µM
OVCAR-3 ovarian
  TGI: > 69.4 µM
MALME-3M melanoma
  TGI: > 100 µM
U251 CNS
  TGI: > 100 µM
A549 NSCLC
  TGI: > 100 µM
OVCAR-8 ovarian
  TGI: > 100 µM
SNB-75 CNS
  TGI: > 100 µM
NCI-H460 lung
  TGI: > 100 µM
UO-31 renal
  TGI: > 100 µM
